Experimental data published in publication PMC10689823, “Discovery of a Drug-like, Natural Product-Inspired DCAF11 Ligand Chemotype” (Nature Communications, 2023).
Several values for one entry are separate records, joined by “and”; a condition that tells them apart may be missing. Equal values may be shown once.

What was measured:
Assay type in all cases: cell-based
[1] = target: PDEδ (Homo sapiens, UniProt O43924); experiment: PDEδ levels by Western blot in Jurkat cells; set-up: endogenous in cells; host or cells: Jurkat; details: 6 h; for PDEδ degradation activity compared with degrader 5: 10 μM
[2] = target: T1, BRD2 (Homo sapiens, UniProt P25440); experiment: BRD2 levels by Western blot in KBM7 cells (WT, DCAF11 knockout, DDB1 knockout); set-up: endogenous in cells; host or cells: KBM7 (WT, DCAF11 KO, DDB1 KO); details: 9 at 3 μM, 10 at 10 μM, 11 at 10 μM; 6 h
Experimental: (§1) Cells were washed with PBS and lysed in lysis buffer (50 mM Tris-HCl, pH 7.4, 150 mM NaCl, 1% Triton X-100, 1% sodium deoxycholate, 0.1% SDS) with complete protease inhibitor cocktail (Roche, 11836170001) for 30 min on ice. For Ramos cells, cell pellets were lysed in lysis buffer (50 mM Tris-HCl, pH 8, 150 mM NaCl, 1% NP-40, 0.5% sodium deoxycholate) with complete protease inhibitor cocktail. After centrifugation at 16,000 x g, the supernatant was transferred into a new tube and the protein concentration was determined by DC protein assay (BIO-RAD, 5000116). Proteins were separated by SDS-PAGE and transferred to a PVDF membrane (Thermo scientific, 0.45 μm, 88518). For PDEδ, BRD2, GAPDH, BRD4, Vinculin and BTK, the membranes were blocked with Intercept® Blocking Buffer (LI-COR Biosciences, 927-70001) at room temperature for 1 h. The primary antibodies for these proteins were diluted with Intercept® Blocking Buffer (1:500 for PDEδ, 1:3000 for Vinculin, and 1:1000 for other proteins) and incubated with the membranes overnight at 4 °C. Membranes were washed with PBS + 0.1% Tween 20 (PBS-T) five times and incubated with secondary antibodies conjugated to IRDye® Infrared Fluorescent Dyes (1:5000, LI-COR Biosciences) at room temperature for 1 h with protection from light. After washing the membrane, signals were visualized using the ChemiDoc MP Imaging System (BIO-RAD Laboratories). For detection of LC3B, BRD3, BLK, DCAF11, DDB1 RBX1, FIP200, V5- and FLAG-Tag the membranes were blocked with 5% milk in PBS-T at room temperature for 1 h. The primary antibodies for these proteins were diluted in 5% milk in PBS-T buffer (1:200 for BRD3, 1:1000 for other proteins) and incubated with the membranes overnight at 4 °C. Membranes were washed with PBS-T five times and incubated with HRP secondary antibodies (1:1500) at room temperature for 1 h. After washing the membrane, protein detection was performed using Western blotting detection reagent (Thermo Scientific, 34095) and the ChemiDoc MP Imaging System (BIO-RAD). Relative band intensities were quantified using Image Lab (BIO-RAD).
DCAF11- or FIP200 (RB1CC1)-targeting sgRNAs were lentivirally packaged using PEI transfection of Lenti-X cells. The viral supernatant was harvested after 72 h, cleared of cellular debris by filtration through a 0.45-µm PES filter and stored in aliquots at −80 °C. The appropriate amount of viral supernatant was transduced into KBM7 cells (1 × 10^6 cells/mL) via spinfection (2000 rpm, 1 h, 37 °C) with polybrene (8 µg/mL). Two days post transduction, the cells were selected with puromycin (1 µg/mL) for a total of 5 days, after which the knockout pools were validated via western blotting.

[3] = target: T1, BRD2; experiment: BRD2 levels by Western blot in Jurkat cells; set-up: endogenous in cells; host or cells: Jurkat; Hep G2; MDA-MB-231; KBM7 (WT, DCAF11 KO, DDB1 KO)
Experimental: as §1

[4] = test system: Jurkat cells; experiment: Cell viability assay (CellTiter-Glo) in Jurkat cells; details: for Relative cell viability (%): Jurkat cells, 72 h, Fig. 4k; for Cell viability (%) relative to DMSO: individual replicates, Supplementary Fig. 7g
Experimental: (§2) Jurkat cells (3 × 10^3) and Hep G2 cells (3.5 × 10^3) were seeded in 96-well plates in 100 μL culture medium. Cells were treated with compounds dissolved in 50 μl medium at the indicated concentration for 72 h, at the same time, one plate of cells without compounds treatment was used for the cell count at time zero. After adding 40 μl of CellTiter-Glo® reagent (Promega, G7571) to each well for 10 min at room temperature, the luminescence was measured on a Spark® Multimode Microplate Reader (Tecan). The data was analyzed by the GraphPad Prism 9.0.

[5] = as above; details: human, Jurkat cells
Experimental: as §2

T1 sequence (P25440 whole entry): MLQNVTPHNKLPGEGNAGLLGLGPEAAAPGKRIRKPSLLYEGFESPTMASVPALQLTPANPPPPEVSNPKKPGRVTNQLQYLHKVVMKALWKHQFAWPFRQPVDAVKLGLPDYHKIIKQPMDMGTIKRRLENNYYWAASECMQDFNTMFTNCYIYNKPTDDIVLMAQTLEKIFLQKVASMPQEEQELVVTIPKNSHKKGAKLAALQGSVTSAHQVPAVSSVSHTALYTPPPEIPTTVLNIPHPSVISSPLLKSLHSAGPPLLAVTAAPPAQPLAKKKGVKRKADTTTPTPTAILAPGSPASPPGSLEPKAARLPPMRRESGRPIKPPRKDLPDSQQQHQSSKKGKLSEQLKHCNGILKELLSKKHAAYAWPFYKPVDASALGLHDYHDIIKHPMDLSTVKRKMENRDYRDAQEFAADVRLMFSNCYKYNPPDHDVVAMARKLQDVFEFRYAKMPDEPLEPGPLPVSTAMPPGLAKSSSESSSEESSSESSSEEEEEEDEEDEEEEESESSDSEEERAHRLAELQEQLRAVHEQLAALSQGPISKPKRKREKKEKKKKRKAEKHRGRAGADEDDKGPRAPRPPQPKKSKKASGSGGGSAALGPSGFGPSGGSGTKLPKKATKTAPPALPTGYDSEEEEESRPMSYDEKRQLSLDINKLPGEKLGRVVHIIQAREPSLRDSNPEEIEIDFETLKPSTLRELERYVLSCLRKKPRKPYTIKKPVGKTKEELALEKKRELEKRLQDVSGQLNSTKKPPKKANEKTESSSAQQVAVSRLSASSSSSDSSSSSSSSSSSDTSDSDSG
PDEδ, sequence (O43924 whole entry): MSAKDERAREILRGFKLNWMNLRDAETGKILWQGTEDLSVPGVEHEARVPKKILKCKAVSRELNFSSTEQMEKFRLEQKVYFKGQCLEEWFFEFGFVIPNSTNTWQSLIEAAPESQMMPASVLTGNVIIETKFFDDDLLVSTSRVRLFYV

With `Cc1ccc(-n2nc3c(=O)n(CCCC(=O)NCCc4ccc(C(=O)NCCOCCOCCOCCOc5c(Br)cc(/C=C6\C(=O)Nc7ccc(I)cc76)cc5Br)cc4)nc(C)c3c2C)cc1` [Compound 6, (Z)-N-(2-(2-(2-(2-(2,6-dibromo-4-((5-iodo-2-oxoindolin-3-ylidene)methyl)phenoxy)ethoxy)ethoxy)ethoxy)ethyl)-4-(2-(4-(3,4-dimethyl-7-oxo-2-(p-tolyl)-2,7-dihydro-6H-pyrazolo[3,4-d]pyridazin-6-yl)butanamido)ethyl)benzamide] the remaining activity at 10 µM ([1]; Jurkat, DMSO pretreatment 2 h, then 10 μM, 6h, Fig. 1h, read-out: PDEδ/Vinculin intensity (relative to DMSO control group)) was 55.4%.
In the case of `Cc1sc2c(c1C)C(c1ccc(Cl)cc1)=N[C@@H](CC(=O)NCCOCCOCCOCCOc1c(Br)cc(/C=C3\C(=O)Nc4ccc(I)cc43)cc1Br)c1nnc(C)n1-2` [Compound 11], the “BRD2 degradation in DCAF11 knockout (KO1 and KO2) KBM7 cells” value [2] is reported as “abolished” and the “efficiency of BRD2 degradation, 10 versus iodo analog 11” value ([3]; 6 h) is reported as “comparable efficiency of BRD2 degradation”.
With `Cc1sc2c(c1C)C(c1ccc(Cl)cc1)=NC(CC(=O)NCCOCCOCCOCCOc1c(Br)cc(C=C3C(=O)N(c4ccccc4)c4ccccc43)cc1Br)c1nnc(C)n1-2` (stereo not drawn) [Compound 49] the remaining activity at 3 µM ([3]; Jurkat, 6 h, 3 μM, 6 h, Fig. 4j, read-out: BRD2/Vinculin intensity (relative to DMSO control group)) was 12.6%.
In the case of `Cc1ccc(-n2nc3c(=O)n(CCCC(=O)NCCc4ccc(C(=O)NCCOCCOCCOCCOc5c(Br)cc(C=C6C(=O)Nc7cc(Br)ccc76)cc5Br)cc4)nc(C)c3c2C)cc1` [Compound 54], the “PDEδ degradation activity compared with degrader 5” value [1] is reported as “comparable or better degradation activity” and the “completeness of PDEδ degradation” value [1] is reported as “did not induce complete degradation”.
With `Cc1ccc(-n2nc3c(=O)n(CCCC(=O)NCCc4ccc(C(=O)NCCOCCOCCOCCOc5c(Br)cc(C=C6C(=O)N(c7ccccc7)c7ccccc76)cc5Br)cc4)nc(C)c3c2C)cc1` [Compound 55] the “PDEδ degradation activity compared with degrader 5” value [1] was “comparable or better degradation activity” and the “completeness of PDEδ degradation” value [1] was “did not induce complete degradation”.
With `Cc1sc2c(c1C)C(c1ccc(Cl)cc1)=N[C@@H](CC(=O)OC(C)(C)C)c1nnc(C)n1-2` [JQ1, reference compound] the “Relative cell viability (%)” value ([4]; 10 nM, 0.01 µM) was 100.371% and 106.106%, the “Relative cell viability (%)” value ([4]; 30 nM, 0.03 µM) was 87.8283% and 96.2473% and the “Relative cell viability (%)” value ([4]; 100 nM, 0.1 µM) was 64.4714% and 60.7516%. For the same compound, the “Relative cell viability (%)” value ([4]; 300 nM, 0.3 µM) was 45.1617% and 37.3276%, the “Relative cell viability (%)” value ([4]; 1000 nM, 1 µM) was 18.9902% and 17.7354% and the “Relative cell viability (%)” value ([4]; 3000 nM, 3 µM) was 9.435% and 7.082%. For the same compound, the “Relative cell viability (%)” value ([4]; 10000 nM, 10 µM) was 4.364% and 3.464%, the “Relative cell viability (%)” value ([4]; 30000 nM, 30 µM) was 1.255% and 1.237% and the “Cell viability (%) relative to DMSO” value ([4]; concentration 10 nmol/L) was 103.479% and 107.527%. For the same compound, the “Cell viability (%) relative to DMSO” value ([4]; concentration 30 nmol/L) was 101.884% and 107.914%, the “Cell viability (%) relative to DMSO” value ([4]; concentration 100 nmol/L) was 89.9727% and 100.534% and the “Cell viability (%) relative to DMSO” value ([4]; concentration 300 nmol/L) was 75.4252% and 84.9435%. For the same compound, the “Cell viability (%) relative to DMSO” value ([4]; concentration 1000 nmol/L) was 55.019% and 62.5193%, the “Cell viability (%) relative to DMSO” value ([4]; concentration 3000 nmol/L) was 46.7418% and 50.7086% and the “Cell viability (%) relative to DMSO” value ([4]; concentration 10000 nmol/L) was 42.9072% and 46.8783%. For the same compound, the “Cell viability (%) relative to DMSO” value ([4]; concentration 30000 nmol/L) was 37.1426% and 41.0159%, the viability at 72 h, 10 nmol/L ([5]; concentration 10 nmol/L, individual replicates, Supplementary Fig. 7g, read-out: Cell viability (%) relative to DMSO) was 94.3% and the viability at 72 h, 30 nmol/L ([5]; concentration 30 nmol/L, individual replicates, Supplementary Fig. 7g, read-out: Cell viability (%) relative to DMSO) was 90.8%. The viability at 72 h, 100 nmol/L ([5]; concentration 100 nmol/L, individual replicates, Supplementary Fig. 7g, read-out: Cell viability (%) relative to DMSO) was 82.6%, the viability at 72 h, 300 nmol/L ([5]; concentration 300 nmol/L, individual replicates, Supplementary Fig. 7g, read-out: Cell viability (%) relative to DMSO) was 69% and the viability at 72 h, 1000 nmol/L ([5]; concentration 1000 nmol/L, individual replicates, Supplementary Fig. 7g, read-out: Cell viability (%) relative to DMSO) was 54.6%. For the same compound, the viability at 72 h, 3000 nmol/L ([5]; concentration 3000 nmol/L, individual replicates, Supplementary Fig. 7g, read-out: Cell viability (%) relative to DMSO) was 46%, the viability at 72 h, 10000 nmol/L ([5]; concentration 10000 nmol/L, individual replicates, Supplementary Fig. 7g, read-out: Cell viability (%) relative to DMSO) was 46.5% and the viability at 72 h, 30000 nmol/L ([5]; concentration 30000 nmol/L, individual replicates, Supplementary Fig. 7g, read-out: Cell viability (%) relative to DMSO) was 40.9%. For the same compound, the viability at 72 h, 0.01 µM ([5]; 72 h, 10 nM, Fig. 4k, read-out: Relative cell viability (%)) was 89.4%, the viability at 72 h, 0.03 µM ([5]; 72 h, 30 nM, Fig. 4k, read-out: Relative cell viability (%)) was 77.8% and the viability at 72 h, 0.1 µM ([5]; 72 h, 100 nM, Fig. 4k, read-out: Relative cell viability (%)) was 52.1%. The viability at 72 h, 0.3 µM ([5]; 72 h, 300 nM, Fig. 4k, read-out: Relative cell viability (%)) was 35%, the viability at 72 h, 1 µM ([5]; 72 h, 1000 nM, Fig. 4k, read-out: Relative cell viability (%)) was 18.1% and the viability at 72 h, 3 µM ([5]; 72 h, 3000 nM, Fig. 4k, read-out: Relative cell viability (%)) was 8.86%. The viability at 72 h, 10 µM ([5]; 72 h, 10000 nM, Fig. 4k, read-out: Relative cell viability (%)) was 4.59%, the viability at 72 h, 30 µM ([5]; 72 h, 30000 nM, Fig. 4k, read-out: Relative cell viability (%)) was 1.85% and the “BRD2 protein levels, ligands alone or in combination” value ([3]; 3 μM, 4 h) was “did not reduce BRD2 protein levels”.
For `Cc1ncsc1-c1ccc(CNC(=O)[C@@H]2C[C@@H](O)CN2C(=O)[C@@H](NC(=O)COCCOCCOCCNC(=O)C[C@@H]2N=C(c3ccc(Cl)cc3)c3c(sc(C)c3C)-n3c(C)nnc32)C(C)(C)C)cc1` [MZ1, reference compound], the “BRD2 levels after washout” value ([3]; 10 μM, 5 h prior to washout) was “can be washed out”.
